Results as given in ChEMBL document CHEMBL1201862, “PubChem BioAssay data set” (2004).
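1) Cells in 96-well plates. 2) Compound, 48 h, 5 concentrations. 3) Linear interpolation between surrounding doses. 4) Unreached endpoint = highest concentration. Abbreviation: GI50, concentration required for 50% inhibition of growth.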 Activity calls are given as the source filed them. Rule as the data show it: active = GI50 up to about 1.1 µM and inactive = higher.

What was measured:
Assay in all cases: NCI tumour cell line growth inhibition, 48 h
[1] = system: CAKI-1
[2] = system: DU-145
[3] = system: EKVX
[4] = system: HCT-15
[5] = system: HL-60
[6] = system: IGROV-1
[7] = system: MCF7
[8] = system: MDA-MB-435
[9] = system: MDA-N
[10] = system: MOLT-4
[11] = system: OVCAR-5
[12] = system: OVCAR-8
[13] = system: SF-268
[14] = system: SK-MEL-28
[15] = system: SNB-75
[16] = system: T47D
[17] = system: TK-10
[18] = system: U-251
[19] = system: UACC-257
[20] = system: UACC-62

Cc1cn([C@@H]2O[C@H](CO[Si](C)(C)C(C)(C)C)[C@]3(O[C@H]3C(=O)NN)[C@H]2O[Si](C)(C)C(C)(C)C)c(=O)[nH]c1=O
GI50 [1]: 11.6 µM (inactive) | GI50 [2]: 6.31 µM (inactive) | GI50 [3]: 8.61 µM (inactive) | GI50 [4]: 4.32 µM | GI50 [5]: 3.13 µM (inactive) | GI50 [6]: 6.22 µM (inactive) | GI50 [7]: 4.26 µM (inactive) | GI50 [8]: 7.11 µM (inactive) | GI50 [9]: 5.78 µM (inactive) | GI50 [10]: 2.04 µM (inactive) | GI50 [11]: 8.55 µM (inactive) | GI50 [12]: 6.62 µM (inactive) | GI50 [13]: 3.59 µM (inactive) | GI50 [14]: 10.3 µM (inactive) | GI50 [15]: 7.98 µM (inactive) | GI50 [16]: 2.36 µM (inactive) | GI50 [17]: 12.7 µM (inactive) | GI50 [18]: 4.23 µM (inactive) | GI50 [19]: 13 µM (inactive) | GI50 [20]: 10.6 µM (inactive)

O=C(/C=C/c1ccc([N+](=O)[O-])cc1)c1nc2ccccc2[nH]1
GI50 [1]: 4.23 µM (inactive) | GI50 [2]: 97.3 µM (inactive) | GI50 [3]: 61.5 µM (inactive) | GI50 [4]: 33 µM | GI50 [5]: 5.2 µM (inactive) | GI50 [6]: 1.68 µM (inactive) | GI50 [7]: 2.21 µM (inactive) | GI50 [8]: > 72.3 µM (inactive) | GI50 [9]: 72.1 µM (inactive) | GI50 [10]: 25.2 µM (inactive) | GI50 [11]: 3.54 µM (inactive) | GI50 [12]: > 70.5 µM (inactive) | GI50 [13]: 39.4 µM (inactive) | GI50 [14]: > 100 µM (inactive) | GI50 [15]: 45.3 µM (inactive) | GI50 [16]: 29.2 µM (inactive) | GI50 [17]: 3.57 µM (inactive) | GI50 [18]: 13.2 µM (inactive) | GI50 [19]: 9.08 µM (inactive) | GI50 [20]: 5.89 µM (inactive)

CCCc1nc(Cl)nc(Cl)c1Cl
GI50 [1]: 0.251 µM (active) | GI50 [2]: 2.41 µM (inactive) | GI50 [3]: 1.03 µM (active) | GI50 [4]: 0.0796 µM | GI50 [5]: 0.189 µM (active) | GI50 [6]: 0.807 µM (active) | GI50 [7]: 0.137 µM (active) | GI50 [8]: 0.422 µM (active) | GI50 [9]: 0.0234 µM (active) | GI50 [10]: 0.065 µM (active) | GI50 [11]: 0.817 µM (active) | GI50 [12]: 0.456 µM (active) | GI50 [13]: 1.85 µM (inactive) | GI50 [14]: 0.472 µM (active) | GI50 [15]: 1.22 µM (inactive) | GI50 [16]: 0.857 µM (active) | GI50 [17]: 0.762 µM (active) | GI50 [18]: 0.67 µM (active) | GI50 [19]: 0.615 µM (active) | GI50 [20]: 0.703 µM (active)

COC(=O)/C=C1\CCCN1CCc1cc2c(cc1CC#N)OCO2
GI50 [1]: > 100 µM (inactive) | GI50 [2]: 80.4 µM (inactive) | GI50 [3]: 58.9 µM (inactive) | GI50 [4]: 43.2 µM | GI50 [5]: 40.7 µM (inactive) | GI50 [6]: > 100 µM (inactive) | GI50 [7]: 32.9 µM (inactive) | GI50 [8]: 17.3 µM (inactive) | GI50 [9]: 18.3 µM (inactive) | GI50 [10]: 34.4 µM (inactive) | GI50 [11]: > 100 µM (inactive) | GI50 [12]: > 100 µM (inactive) | GI50 [13]: > 100 µM (inactive) | GI50 [14]: 84.1 µM (inactive) | GI50 [15]: 25.1 µM (inactive) | GI50 [16]: 38.7 µM (inactive) | GI50 [17]: > 100 µM (inactive) | GI50 [18]: 39.7 µM (inactive) | GI50 [19]: 59.4 µM (inactive) | GI50 [20]: 31.4 µM (inactive)

O=C(O)CC(Nc1ccccc1)C(=O)O (stereo not given)
GI50 [1]: > 100 µM (inactive) | GI50 [2]: > 100 µM (inactive) | GI50 [3]: > 100 µM (inactive) | GI50 [4]: > 100 µM | GI50 [5]: > 100 µM (inactive) | GI50 [6]: > 100 µM (inactive) | GI50 [7]: > 100 µM (inactive) | GI50 [8]: > 100 µM (inactive) | GI50 [9]: > 100 µM (inactive) | GI50 [10]: > 100 µM (inactive) | GI50 [11]: > 100 µM (inactive) | GI50 [12]: > 100 µM (inactive) | GI50 [13]: > 100 µM (inactive) | GI50 [14]: > 100 µM (inactive) | GI50 [15]: > 100 µM (inactive) | GI50 [16]: > 100 µM (inactive) | GI50 [17]: > 100 µM (inactive) | GI50 [18]: > 100 µM (inactive) | GI50 [19]: > 100 µM (inactive) | GI50 [20]: > 100 µM (inactive)

COc1c(O)c(O)cc2c1-c1ccc(OC)c(=O)cc1C(NC(C)=O)CC2 (stereo not given)
GI50 [1]: 24.2 µM (inactive) | GI50 [2]: 12.3 µM (inactive) | GI50 [3]: 25.5 µM (inactive) | GI50 [4]: 30.6 µM | GI50 [5]: 4.85 µM (inactive) | GI50 [6]: 5.26 µM (inactive) | GI50 [7]: 2.61 µM (inactive) | GI50 [8]: 1.6 µM (inactive) | GI50 [9]: 1.69 µM (inactive) | GI50 [10]: 6.24 µM (inactive) | GI50 [11]: 40 µM (inactive) | GI50 [12]: 7.55 µM (inactive) | GI50 [13]: 5.52 µM (inactive) | GI50 [14]: 8.07 µM (inactive) | GI50 [15]: 4.24 µM (inactive) | GI50 [16]: > 100 µM (inactive) | GI50 [17]: 65.2 µM (inactive) | GI50 [18]: 4.03 µM (inactive) | GI50 [19]: 7.26 µM (inactive) | GI50 [20]: 4.36 µM (inactive)

C=CC[C@]1(C2=NC(C)(C)CO2)c2ccccc2-c2ccccc2[C@H]1C(C)=O
GI50 [1]: 10.5 µM (inactive) | GI50 [2]: 14.4 µM (inactive) | GI50 [3]: 15.6 µM (inactive) | GI50 [4]: 4.82 µM | GI50 [5]: 3.93 µM (inactive) | GI50 [6]: 8.38 µM (inactive) | GI50 [7]: 4.22 µM (inactive) | GI50 [8]: 3.64 µM (inactive) | GI50 [9]: 2.74 µM (inactive) | GI50 [10]: 9.27 µM (inactive) | GI50 [11]: 19.9 µM (inactive) | GI50 [12]: 15.7 µM (inactive) | GI50 [13]: 10 µM (inactive) | GI50 [14]: 14.2 µM (inactive) | GI50 [15]: 10.9 µM (inactive) | GI50 [16]: 13 µM (inactive) | GI50 [17]: 12.5 µM (inactive) | GI50 [18]: 8.15 µM (inactive) | GI50 [19]: 6.05 µM (inactive) | GI50 [20]: 5.65 µM (inactive)

COc1ccc(/C=C2\C(=O)NC(=O)c3ccccc32)cc1OC
GI50 [1]: 26.7 µM (inactive) | GI50 [2]: > 100 µM (inactive) | GI50 [3]: 31.6 µM (inactive) | GI50 [4]: 20.5 µM | GI50 [5]: 2.68 µM (inactive) | GI50 [6]: 13.8 µM (inactive) | GI50 [7]: 56.9 µM (inactive) | GI50 [8]: 30.1 µM (inactive) | GI50 [9]: > 43.6 µM (inactive) | GI50 [10]: 5.77 µM (inactive) | GI50 [11]: 60.8 µM (inactive) | GI50 [12]: 10.1 µM (inactive) | GI50 [13]: 18.2 µM (inactive) | GI50 [14]: > 77.3 µM (inactive) | GI50 [15]: 37.4 µM (inactive) | GI50 [16]: > 100 µM (inactive) | GI50 [17]: > 100 µM (inactive) | GI50 [18]: 11.8 µM (inactive) | GI50 [19]: > 100 µM (inactive) | GI50 [20]: 25.6 µM (inactive)

COc1cc(-c2cc(=O)c3cc4c(=O)cc(-c5cc(OC)c(OC)c(OC)c5)oc4cc3o2)cc(OC)c1OC
GI50 [1]: 23.2 µM (inactive) | GI50 [2]: 35.7 µM (inactive) | GI50 [3]: > 100 µM (inactive) | GI50 [4]: > 100 µM | GI50 [5]: > 100 µM (inactive) | GI50 [6]: 22.7 µM (inactive) | GI50 [7]: > 100 µM (inactive) | GI50 [8]: > 100 µM (inactive) | GI50 [9]: > 100 µM (inactive) | GI50 [10]: > 88.7 µM (inactive) | GI50 [11]: > 100 µM (inactive) | GI50 [12]: 27 µM (inactive) | GI50 [13]: 23.5 µM (inactive) | GI50 [14]: > 100 µM (inactive) | GI50 [15]: 13.5 µM (inactive) | GI50 [16]: > 54.8 µM (inactive) | GI50 [17]: 16.3 µM (inactive) | GI50 [18]: 8.59 µM (inactive) | GI50 [19]: > 83.6 µM (inactive) | GI50 [20]: 13.9 µM (inactive)

C=C1c2nc3ccccc3n2C=C(c2ccc(C)cc2)N1c1ccccc1
GI50 [1]: 20.5 µM (inactive) | GI50 [2]: 3.9 µM (inactive) | GI50 [3]: 2.9 µM (inactive) | GI50 [4]: 1.47 µM | GI50 [5]: 1.85 µM (inactive) | GI50 [6]: 3.33 µM (inactive) | GI50 [7]: 2.47 µM (inactive) | GI50 [8]: 0.439 µM (active) | GI50 [9]: 0.508 µM (active) | GI50 [10]: 4.41 µM (inactive) | GI50 [11]: 20.7 µM (inactive) | GI50 [12]: 5.14 µM (inactive) | GI50 [13]: 12.9 µM (inactive) | GI50 [14]: 5.58 µM (inactive) | GI50 [15]: 2.08 µM (inactive) | GI50 [16]: 3.24 µM (inactive) | GI50 [17]: 18.8 µM (inactive) | GI50 [18]: 3.27 µM (inactive) | GI50 [19]: 7.93 µM (inactive) | GI50 [20]: 2.86 µM (inactive)
